Results reported in ChEMBL document CHEMBL1143408 (Antimicrob Agents Chemother, 2007).

Columns and labels:
[1] = Drug level in human cystic fibrosis patient serum at 2000 mg/20 mins infusion; type: ADME, cell-free; settings: iv, read-out: Drug uptake
[2] = Drug level in healthy human serum at 2000 mg/20 mins infusion; type: ADME, cell-free; settings: iv, read-out: Drug uptake
Pseudomonas aeruginosa = test: Antimicrobial activity against Pseudomonas aeruginosa isolated from cystic fibrosis patient sputum culture

SMILES: C[C@H]1[C@H](NC(=O)/C(=N\OC(C)(C)C(=O)O)c2csc(N)n2)C(=O)N1S(=O)(=O)O [AZTREONAM]
- concentration at 20 min [1]: 228 µg/mL
- concentration at 20 min [2]: 242 µg/mL
- MIC (Pseudomonas aeruginosa): ≤ 8 ng/mL
